ChEMBL document CHEMBL1201862, “PubChem BioAssay data set” (2004)
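Protocol summary: plate cells (96-well), add compound at 5 concentrations, incubate 48 h, interpolate endpoints linearly. GI50 = concentration required for 50% inhibition of growth.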 The source made the active and inactive calls. Rule as the data show it: active = GI50 up to about 1.1 µM and inactive = higher.

Assays:
Test in all cases: NCI anticancer screen, dose series, 48 h
786-0 = system: 786-0
A498 = system: A498
A549 = system: A549
ACHN = system: ACHN
BT-549 = system: BT-549
CAKI-1 = system: CAKI-1
CCRF-CEM = system: CCRF-CEM
COLO 205 = system: COLO 205
DU-145 = system: DU-145
EKVX = system: EKVX
HCC 2998 = system: HCC 2998
HCT-116 = system: HCT-116
HCT-15 = system: HCT-15
HL-60 = system: HL-60
HOP-62 = system: HOP-62
HOP-92 = system: HOP-92
HT-29 = system: HT-29
Hs-578T = system: Hs-578T
IGROV-1 = system: IGROV-1
K562 = system: K562
KM12 = system: KM12
LOX IMVI = system: LOX IMVI
M14 = system: M14
MCF7 = system: MCF7
MDA-MB-231 = system: MDA-MB-231
MDA-MB-435 = system: MDA-MB-435
MDA-N = system: MDA-N
MOLT-4 = system: MOLT-4
Malme-3M = system: Malme-3M
NCI-H226 = system: NCI-H226
NCI-H23 = system: NCI-H23
NCI-H460 = system: NCI-H460
NCI-H522 = system: NCI-H522
NCI/ADR-RES = system: NCI/ADR-RES
OVCAR-3 = system: OVCAR-3
OVCAR-4 = system: OVCAR-4
OVCAR-5 = system: OVCAR-5
OVCAR-8 = system: OVCAR-8
PC-3 = system: PC-3
RXF 393 = system: RXF 393
SF-268 = system: SF-268
SF-295 = system: SF-295
SF-539 = system: SF-539
SK-MEL-28 = system: SK-MEL-28
SK-MEL-2 = system: SK-MEL-2
SK-MEL-5 = system: SK-MEL-5
SK-OV-3 = system: SK-OV-3
SN12C = system: SN12C
SNB-19 = system: SNB-19
SR = system: SR
SW-620 = system: SW-620
T47D = system: T47D
TK-10 = system: TK-10
U-251 = system: U-251
UACC-257 = system: UACC-257
UO-31 = system: UO-31
RPMI-8226 = system: RPMI-8226
UACC-62 = system: UACC-62

## Nc1cc(N)cc(Cc2ccccc2)c1
786-0
  GI50: > 100 µM (inactive)
A498
  GI50: > 100 µM (inactive)
A549
  GI50: > 100 µM (inactive)
ACHN
  GI50: > 100 µM (inactive)
BT-549
  GI50: > 100 µM (inactive)
CAKI-1
  GI50: > 100 µM (inactive)
CCRF-CEM
  GI50: > 100 µM (inactive)
COLO 205
  GI50: > 100 µM (inactive)
DU-145
  GI50: > 100 µM (inactive)
EKVX
  GI50: > 100 µM (inactive)
HCC 2998
  GI50: > 100 µM (inactive)
HCT-116
  GI50: > 100 µM (inactive)
HCT-15
  GI50: > 100 µM
HL-60
  GI50: > 100 µM (inactive)
HOP-62
  GI50: > 100 µM (inactive)
HOP-92
  GI50: > 100 µM (inactive)
HT-29
  GI50: > 100 µM (inactive)
Hs-578T
  GI50: > 100 µM (inactive)
IGROV-1
  GI50: > 100 µM (inactive)
K562
  GI50: > 100 µM (inactive)
KM12
  GI50: > 100 µM (inactive)
LOX IMVI
  GI50: > 100 µM (inactive)
M14
  GI50: > 100 µM (inactive)
MCF7
  GI50: > 100 µM (inactive)
MDA-MB-231
  GI50: > 100 µM (inactive)
MDA-MB-435
  GI50: > 100 µM (inactive)
MDA-N
  GI50: > 100 µM (inactive)
MOLT-4
  GI50: > 100 µM (inactive)
Malme-3M
  GI50: > 100 µM (inactive)
NCI-H226
  GI50: > 100 µM (inactive)
NCI-H23
  GI50: > 100 µM (inactive)
NCI-H460
  GI50: > 100 µM (inactive)
NCI-H522
  GI50: > 100 µM (inactive)
NCI/ADR-RES
  GI50: > 100 µM (inactive)
OVCAR-3
  GI50: > 100 µM (inactive)
OVCAR-4
  GI50: > 100 µM (inactive)
OVCAR-5
  GI50: > 100 µM (inactive)
OVCAR-8
  GI50: > 100 µM (inactive)
PC-3
  GI50: > 100 µM (inactive)
RXF 393
  GI50: > 100 µM (inactive)
SF-268
  GI50: > 100 µM (inactive)
SF-295
  GI50: > 100 µM (inactive)
SF-539
  GI50: > 100 µM (inactive)
SK-MEL-28
  GI50: > 100 µM (inactive)
SK-MEL-2
  GI50: > 100 µM (inactive)
SK-MEL-5
  GI50: > 100 µM (inactive)
SK-OV-3
  GI50: > 100 µM (inactive)
SN12C
  GI50: > 100 µM (inactive)
SNB-19
  GI50: > 100 µM (inactive)
SR
  GI50: > 100 µM (inactive)
SW-620
  GI50: > 100 µM (inactive)
T47D
  GI50: > 100 µM (inactive)
TK-10
  GI50: > 100 µM (inactive)
U-251
  GI50: > 100 µM (inactive)
UACC-257
  GI50: > 100 µM (inactive)
UO-31
  GI50: > 100 µM (inactive)

## COC(=O)C12OC3CO[Si](C(C)C)(C(C)C)O[Si](C(C)C)(C(C)C)OC3C1Oc1nc(=O)ccn12 (stereo unspecified)
786-0
  GI50: 17.7 µM (inactive)
A498
  GI50: 23.7 µM (inactive)
A549
  GI50: 15.2 µM (inactive)
ACHN
  GI50: 17.9 µM (inactive)
BT-549
  GI50: 18.2 µM (inactive)
CAKI-1
  GI50: 17.7 µM (inactive)
CCRF-CEM
  GI50: 17.3 µM (inactive)
COLO 205
  GI50: 18.7 µM (inactive)
DU-145
  GI50: 18.5 µM (inactive)
EKVX
  GI50: 16.7 µM (inactive)
HCT-116
  GI50: 16.1 µM (inactive)
HCT-15
  GI50: 16.5 µM
HL-60
  GI50: 23.4 µM (inactive)
HOP-62
  GI50: 18.1 µM (inactive)
HOP-92
  GI50: 14.3 µM (inactive)
HT-29
  GI50: 15.4 µM (inactive)
Hs-578T
  GI50: < 0.01 µM (active)
IGROV-1
  GI50: 11.6 µM (inactive)
K562
  GI50: 15.4 µM (inactive)
KM12
  GI50: 15.7 µM (inactive)
LOX IMVI
  GI50: 17.4 µM (inactive)
M14
  GI50: 17.8 µM (inactive)
MCF7
  GI50: 16 µM (inactive)
MDA-MB-231
  GI50: 15.5 µM (inactive)
MDA-MB-435
  GI50: 17.1 µM (inactive)
MDA-N
  GI50: 18 µM (inactive)
MOLT-4
  GI50: 12.1 µM (inactive)
Malme-3M
  GI50: 14.8 µM (inactive)
NCI-H226
  GI50: 15.8 µM (inactive)
NCI-H23
  GI50: 15.5 µM (inactive)
NCI/ADR-RES
  GI50: 15.6 µM (inactive)
OVCAR-3
  GI50: 15.8 µM (inactive)
OVCAR-4
  GI50: 17.1 µM (inactive)
OVCAR-5
  GI50: 15.2 µM (inactive)
OVCAR-8
  GI50: 15.5 µM (inactive)
PC-3
  GI50: 15.3 µM (inactive)
RPMI-8226
  GI50: 13.7 µM (inactive)
RXF 393
  GI50: 16.6 µM (inactive)
SF-268
  GI50: 12 µM (inactive)
SF-295
  GI50: 16 µM (inactive)
SF-539
  GI50: 16.4 µM (inactive)
SK-MEL-28
  GI50: 16.7 µM (inactive)
SK-MEL-2
  GI50: 17.1 µM (inactive)
SK-MEL-5
  GI50: 16.2 µM (inactive)
SK-OV-3
  GI50: 17.3 µM (inactive)
SN12C
  GI50: 17.9 µM (inactive)
SNB-19
  GI50: 17.3 µM (inactive)
SR
  GI50: 15 µM (inactive)
SW-620
  GI50: 16 µM (inactive)
T47D
  GI50: 18.8 µM (inactive)
TK-10
  GI50: 17.1 µM (inactive)
U-251
  GI50: 16.1 µM (inactive)
UACC-257
  GI50: 15.6 µM (inactive)
UACC-62
  GI50: 14.3 µM (inactive)
UO-31
  GI50: 16.3 µM (inactive)
